From ChEMBL document CHEMBL1134585, “New 3'-azido-3'-deoxythymidin-5'-yl O-(4-hydroxyalkyl or -alkenyl or -alkylepoxide) carbonate prodrugs: synthesis and anti-HIV evaluation” (J Med Chem, 2001) come the findings set out here.

pEC50: −log10 of the molar value.

Series [1] is described as follows: half life time required for 50% hydrolysis of prodrugs to AZT at 37 degrees upon incubation in normal human serum(NHS). Format: ADME.
Series [2] is described as follows: half life time required for 50% hydrolysis of prodrugs to AZT at 37 degrees upon incubation in Phosphate buffer saline(PBS), (0% of AZT was released). In kind it is ADME.
A short description of series [3]: Partition coefficient (logP). The conditions noted are these: octanol/water. Format: physicochemical.
Series [4] is described as follows: half life time required for 50% hydrolysis of prodrugs to AZT at 37 degrees upon incubation in Phosphate buffer saline(PBS), (8% of AZT was released). Format: ADME.
Series [5] relates to MT4. In words: Conc. required to cause 50% death of uninfected MT-4 cells. In kind it is functional. The following applies: Homo sapiens.
The subject of series [6] is MT4. Briefly: Conc. required to inhibit the cytopathicity on HIV-1 by 50% on MT-4 cells. Format: functional, cell-based. The conditions noted are these: Homo sapiens.
The species entered for series [7] is Homo sapiens. In words: Conc. required to cause 50% death of uninfected PBMCs. In kind it is functional.
The species named for series [8] is Homo sapiens. Briefly: Conc. required to inhibit HIV-1 replication on PBMCs by 50%. Format: functional, organism-based.
The nature of series [9]: half life time required for 50% hydrolysis of prodrugs to AZT at 37 degrees upon incubation in Phosphate buffer saline(PBS), (% of AZT was released). Format: ADME.
The subject of series [10] is MT4. Briefly: Conc. required to inhibit the cytopathicity of HIV-1 by 50% on MT-4 cells. Format: functional, cell-based. The conditions noted are these: Homo sapiens. For orientation: Cytopathic effects are the visible damage that an infection or toxin causes in cultured cells.
Series [11] is described as follows: half life time required for 50% hydrolysis of prodrugs to AZT at 37 degrees upon incubation in Phosphate buffer saline(PBS), (8 % of AZT was released). In kind it is ADME.
The nature of series [12]: half life time required for 50% hydrolysis of prodrugs to AZT at 37 degrees upon incubation in Phosphate buffer saline(PBS), (6% of AZT was released). In kind it is ADME.

For `Cc1cn(C2CC(N=[N+]=[N-])C(COC(=O)OCCCCCO)O2)c(=O)[nH]c1=O` (centres undefined), the T1/2 in [1] was determined as 16 min.
`CCCCOC(=O)OCC1OC(n2cc(C)c(=O)[nH]c2=O)CC1N=[N+]=[N-]` (centres undefined): the T1/2 in series [2] is listed as greater than 1440 min; in series [1], 9 min.
For `Cc1cn(C2CC(N=[N+]=[N-])C(COC(=O)OCCO)O2)c(=O)[nH]c1=O` (centres undefined), the T1/2 in series [1] was less than 1 min.
Turning to `Cc1cn(C2CC(N=[N+]=[N-])C(COC(=O)OCCCCCCO)O2)c(=O)[nH]c1=O` (centres undefined), the T1/2 in series [1] was 7 min.
Turning to `Cc1cn(C2CC(N=[N+]=[N-])C(COC(=O)OCCCCCCCCO)O2)c(=O)[nH]c1=O` (centres undefined), the T1/2 in series [1] worked out at 2 min.
Consider `Cc1cn([C@H]2C[C@H](N=[N+]=[N-])[C@@H](COC(=O)OC/C=C\CO)O2)c(=O)[nH]c1=O`, for which, in [3], the logP (usually the decadic logarithm of the partition coefficient of the neutral form, usually between octanol and water) stood at 0.59. The T1/2 is greater than 1440 min in series [4] and 45 min in [1]. The CC50 with MT4 [5] is 179 µM; in the series filed under Homo sapiens [7], greater than 20 µM. Besides, the pEC50 (as a rule, −log10 of the EC50, conventionally taken in molar units) with MT4 [6] was 7.74; in the series listed under Homo sapiens [8], 7.28.
`Cc1cn([C@H]2C[C@H](N=[N+]=[N-])[C@@H](COC(=O)OC/C=C/CO)O2)c(=O)[nH]c1=O` displayed a logP in series [3] of -0.59. Also, the T1/2 in [1] is 26 min; in series [9], greater than 1440 min. For the same molecule, the CC50 with MT4 [5] was 162 µM; in the series filed under Homo sapiens [7] it was greater than 20 µM. In addition, the figures for the pEC50 in the series listed under Homo sapiens [8] and in the series with MT4 [10] were 7.18 and 8.10, respectively.
The molecule `Cc1cn([C@H]2C[C@H](N=[N+]=[N-])[C@@H](COC(=O)OC[C@H]3O[C@H]3CO)O2)c(=O)[nH]c1=O` registered a logP in series [3] of 0.47. In addition, the T1/2 in series [11] was greater than 1440 min; in [1], 80 min. Further, the values for the CC50 with MT4 [5] and in the series filed under Homo sapiens [7] were 159 µM and greater than 20 µM, respectively. The negative-log EC50 (pEC50) was 7.89 in the series on MT4 [6] and 6.99 in the series filed under Homo sapiens [8].
For `Cc1cn(C2CC(N=[N+]=[N-])C(COC(=O)OCCCCO)O2)c(=O)[nH]c1=O` (centres undefined), the figures for the T1/2 in [12] and in [1] were greater than 1440 min and 30 min, respectively. Besides, the CC50 in the series with MT4 [5] is 262 µM; in the series filed under Homo sapiens [7], greater than 20 µM. The pEC50 in the series on MT4 [6] is 8.22; in the series filed under Homo sapiens [8], 7.51.
As to `Cc1cn(C2CC(N=[N+]=[N-])C(COC(=O)OCCCO)O2)c(=O)[nH]c1=O` (centres undefined), the T1/2 in series [1] came to 10 min.
`Cc1cn([C@H]2C[C@H](N=[N+]=[N-])[C@@H](CO)O2)c(=O)[nH]c1=O` [ZIDOVUDINE]: the logP in series [3] was 0.88. In addition, the CC50 came to 42 µM in the series on MT4 [5] and 15 µM in the series filed under Homo sapiens [7]. For the same molecule, the negative logarithm of the EC50 (pEC50) is 7.92 with MT4 [6] and 7.25 in the series listed under Homo sapiens [8].
